# Assay results taken from paper PMC5856391, “Critical role of C-terminal residues of the Alzheimer's associated β-amyloid protein in mediating antiviral activity and modulating viral and bacterial interactions with neutrophils” (PLoS ONE, 2018).
# Entries after “also recorded” stand apart in the source; their conditions may differ.
# Assays:
# [1] = test system: human neutrophils; experiment: Neutrophil uptake of rhodamine labeled E.coli; type: cell-based; conditions: for Neutrophil uptake of E.coli: rhodamine labeled E.coli pre-incubated with peptide, flow cytometry, 5 experiments, separate donors, Fig 7
# [2] = test system: IAV; experiment: Confocal microscopy of Alexa Fluor 594 labeled IAV on MDCK cells; type: cell-based, influenza A virus; conditions: Alexa Fluor 594 labeled IAV pre-incubated with peptide 30 minutes at 37°C, then MDCK cells 45 min; 3 experiments; Fig 3
# [3] = test system: human neutrophils; experiment: IAV uptake by neutrophils (flow cytometry); type: cell-based; conditions: FITC-IAV (Phil82) treated with peptide 30 min at 37°C, then neutrophils 45 minutes at 37°C, trypan blue quench, 5 experiments, separate donors
# [4] = test system: Escherichia coli (E.coli); experiment: Aggregation of rhodamine labeled E.coli (fluorescent microscopy); conditions: rhodamine E. coli preincubated with 50ug/ml peptide for 1 hour at 37°C, fluorescent microscope; three experiments; Fig 6
# [5] = test system: IAV; experiment: Viral aggregation by electron microscopy; parameters: species or system influenza A virus; conditions: 2 or 8μg/ml of peptide; LPS control 10 EU/ml; representative of 3 experiments; Fig 2C
# [6] = test system: Philippines 82/H3N2 (Phil82) influenza A virus; type: cell-based
# [7] = test system: human neutrophils; type: cell-based; conditions: compared to IAV alone, 5 experiments
# [8] = test system: IAV; experiment: Viral aggregation by light absorbance at 350 nm; parameters: species or system influenza A virus; conditions: for Aggregation of IAV particles (light transmission at 350nm): dilute suspension of IAV, Fig 2A and 2B (8 and 16μg/ml)
# [9] = parameters: method as in PMID 24449257; conditions: simulation kinetics and energetics, compared with βA 35–40 and βA37-42; cited from earlier work
Sequence,Neutrophil uptake of E.coli [1],Viral aggregates visible by confocal microscopy [2],Neutrophil uptake of IAV ([3]; Fig 4),Aggregation of fluorescent E.coli [4],Viral aggregation by electron microscopy [5],Inhibition of IAV infectivity (neutralization) [6],"Neutrophil H2O2 formation in response to IAV, 16μg/ml ([7]; IAV pre-incubated with 16μg/ml peptide, Fig 5A)","Aggregation of IAV (light transmission at 350nm), 16μg/ml ([8]; 16μg/ml of βA peptides, Fig 2B)",Aggregation of IAV particles (light transmission at 350nm) [8],Aggregation of IAV particles (light transmission at 350nm) ([8]; listed as 22–42),"Neutrophil uptake of IAV ([3]; Fig 4, listed as 22–42)","Neutrophil uptake of E.coli, 32μg/ml ([1]; 32μg/ml peptide, Fig 7A)","Neutrophil H2O2 production in response to IAV ([7]; IAV pre-incubated with peptide, Fig 5B)",Propensity to assemble into unorganized oligomers [9]
"EDVGSNKGAIIGLMVGGVV [βA22-40, βA fragment of residues 22-40, obtained from Genscript]",slight but significantly increased uptake at the highest concentration tested,not,lacked activity,did not,did not,no or minimal antiviral activity,,,,,,,,
"EDVGSNKGAIIGLMVGGVVIA [βA22-42, βA fragment of residues 22-42, obtained from Genscript]",marked increase in uptake,Aggregates were visible; also recorded: Aggregates were apparent,greater increases than βA1-42,caused aggregation,marked viral aggregation,significantly inhibited infectivity,increased H2O2 formation as compared to IAV alone,statistically significant aggregation,highest activity in this assay,caused aggregation of IAV particles,had the ability to increase viral uptake,,,
"GLMVGGVV [βA33-40, βA fragment of residues 33-40, obtained from Genscript]",No significant effects,,lacked activity,,,no or minimal antiviral activity,,,,,,,,
"MVGGVVIA [βA35-42, 8 amino acid βA fragment of residues 35-42, obtained from Genscript]",,,increased uptake at the highest concentration tested,,,significantly inhibited infectivity,,,caused aggregation of IAV particles,,,some increase in E.coli uptake,did not increase H2O2 production,increased propensity
